Measurements as given in the kinase profiling compilation of Christmann-Franck et al. (2016).

Experiments:
Assay in all cases: KINOMEscan competition binding
Details in all cases: compound 10.0 µM
ACVR1 (human) = ACVR1 (human) (UniProt Q04771)
AURKB (human) = AURKB (human) (UniProt Q96GD4)
BMPR1B (human) = BMPR1B (human) (UniProt O00238)
BRSK2 (human) = BRSK2 (human) (UniProt Q8IWQ3)
CAMKK1 (human) = CAMKK1 (human) (UniProt Q8N5S9)
CAMKK2 (human) = CAMKK2 (human) (UniProt Q96RR4)
CIT (human) = CIT (human) (UniProt O14578)
CLK1 (human) = CLK1 (human) (UniProt P49759)
CLK4 (human) = CLK4 (human) (UniProt Q9HAZ1)
CSNK1D (human) = CSNK1D (human) (UniProt P48730)
CSNK1G3 (human) = CSNK1G3 (human) (UniProt Q9Y6M4)
CSNK2A2 (human) = CSNK2A2 (human) (UniProt P19784)
DAPK1 (human) = DAPK1 (human) (UniProt P53355)
DYRK1B (human) = DYRK1B (human) (UniProt Q9Y463)
[1] = tested on: EGFR (human), P00533 [G719S]
[2] = tested on: EIF2AK4 KD2 (human), Q9P2K8 [S808G]
FLT3 (human) = FLT3 (human) (UniProt P36888)
[3] = tested on: FLT3 (human), P36888 [ITD]
[4] = tested on: FLT3 (human), P36888 [K663Q]
GAK (human) = GAK (human) (UniProt O14976)
GSK3A (human) = GSK3A (human) (UniProt P49840)
KIT (human) = KIT (human) (UniProt P10721)
MAP3K5 (human) = MAP3K5 (human) (UniProt Q99683)
MAP3K7 (human) = MAP3K7 (human) (UniProt O43318)
MAP4K4 (human) = MAP4K4 (human) (UniProt O95819)
MELK (human) = MELK (human) (UniProt Q14680)
MKNK2 (human) = MKNK2 (human) (UniProt Q9HBH9)
MYLK3 (human) = MYLK3 (human) (UniProt Q32MK0)
PIK3CG (human) = PIK3CG (human) (UniProt P48736)
PIM2 (human) = PIM2 (human) (UniProt Q9P1W9)
PLK4 (human) = PLK4 (human) (UniProt O00444)
PRKD3 (human) = PRKD3 (human) (UniProt O94806)
RIOK2 (human) = RIOK2 (human) (UniProt Q9BVS4)
RIOK3 (human) = RIOK3 (human) (UniProt O14730)
RIPK4 (human) = RIPK4 (human) (UniProt P57078)
RPS6KA1 KD2 (human) = RPS6KA1 KD2 (human) (UniProt Q15418)
RPS6KA5 KD2 (human) = RPS6KA5 KD2 (human) (UniProt O75582)
SRPK3 (human) = SRPK3 (human) (UniProt Q9UPE1)
STK16 (human) = STK16 (human) (UniProt O75716)
STK17B (human) = STK17B (human) (UniProt O94768)
STK24 (human) = STK24 (human) (UniProt Q9Y6E0)
TNIK (human) = TNIK (human) (UniProt Q9UKE5)

Sequence of PIM2 (human) (Q9P1W9 whole entry, looked up): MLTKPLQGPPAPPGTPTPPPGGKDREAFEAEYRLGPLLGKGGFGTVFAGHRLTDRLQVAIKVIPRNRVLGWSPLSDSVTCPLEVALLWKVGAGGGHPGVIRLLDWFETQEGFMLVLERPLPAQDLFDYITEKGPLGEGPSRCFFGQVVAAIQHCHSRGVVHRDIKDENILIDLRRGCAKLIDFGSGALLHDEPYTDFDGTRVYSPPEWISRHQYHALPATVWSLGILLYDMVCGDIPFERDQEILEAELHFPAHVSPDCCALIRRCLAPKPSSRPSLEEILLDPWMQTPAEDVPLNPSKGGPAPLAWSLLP
Sequence of GSK3A (human) (P49840 whole entry, looked up): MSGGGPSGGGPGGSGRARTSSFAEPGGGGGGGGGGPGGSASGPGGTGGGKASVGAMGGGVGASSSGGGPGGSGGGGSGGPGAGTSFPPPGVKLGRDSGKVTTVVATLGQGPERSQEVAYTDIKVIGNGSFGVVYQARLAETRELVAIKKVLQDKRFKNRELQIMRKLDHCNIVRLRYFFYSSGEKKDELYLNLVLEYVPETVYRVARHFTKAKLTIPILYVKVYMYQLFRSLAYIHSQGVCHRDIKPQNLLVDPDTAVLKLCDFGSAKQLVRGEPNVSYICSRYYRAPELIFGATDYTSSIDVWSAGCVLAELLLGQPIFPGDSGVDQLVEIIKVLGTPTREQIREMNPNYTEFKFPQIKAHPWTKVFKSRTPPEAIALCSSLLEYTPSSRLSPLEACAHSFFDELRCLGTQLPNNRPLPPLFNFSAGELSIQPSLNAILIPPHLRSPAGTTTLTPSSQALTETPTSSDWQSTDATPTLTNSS
Sequence of PIK3CG (human) (P48736 whole entry, looked up): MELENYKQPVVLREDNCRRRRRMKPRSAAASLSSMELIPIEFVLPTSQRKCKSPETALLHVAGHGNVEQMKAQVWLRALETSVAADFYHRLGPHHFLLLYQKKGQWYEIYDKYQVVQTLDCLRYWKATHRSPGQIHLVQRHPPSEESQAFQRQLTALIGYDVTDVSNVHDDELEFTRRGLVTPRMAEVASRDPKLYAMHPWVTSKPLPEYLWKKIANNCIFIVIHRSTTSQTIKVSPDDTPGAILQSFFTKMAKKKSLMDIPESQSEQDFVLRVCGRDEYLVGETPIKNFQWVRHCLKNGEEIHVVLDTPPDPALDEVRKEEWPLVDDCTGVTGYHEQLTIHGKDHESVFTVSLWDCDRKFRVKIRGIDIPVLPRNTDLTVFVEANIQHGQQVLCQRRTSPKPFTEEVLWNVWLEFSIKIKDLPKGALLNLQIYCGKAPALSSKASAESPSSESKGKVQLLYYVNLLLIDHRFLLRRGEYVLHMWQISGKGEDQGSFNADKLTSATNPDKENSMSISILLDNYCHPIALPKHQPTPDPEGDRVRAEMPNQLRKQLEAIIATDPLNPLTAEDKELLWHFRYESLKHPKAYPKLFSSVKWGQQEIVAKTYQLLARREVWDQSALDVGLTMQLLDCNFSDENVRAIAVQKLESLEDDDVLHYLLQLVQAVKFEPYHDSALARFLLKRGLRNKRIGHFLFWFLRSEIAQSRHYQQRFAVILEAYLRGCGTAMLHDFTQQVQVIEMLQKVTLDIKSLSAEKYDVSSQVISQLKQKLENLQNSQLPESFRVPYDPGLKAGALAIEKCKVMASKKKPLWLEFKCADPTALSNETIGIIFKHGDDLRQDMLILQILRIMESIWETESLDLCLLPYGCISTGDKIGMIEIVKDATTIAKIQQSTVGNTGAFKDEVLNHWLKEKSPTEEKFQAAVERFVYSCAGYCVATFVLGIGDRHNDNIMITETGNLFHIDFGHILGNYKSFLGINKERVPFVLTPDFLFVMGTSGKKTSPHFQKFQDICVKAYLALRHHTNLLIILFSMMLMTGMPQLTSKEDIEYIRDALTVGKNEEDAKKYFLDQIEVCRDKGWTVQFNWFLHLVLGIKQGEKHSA
Sequence of MAP3K5 (human) (Q99683 whole entry, looked up): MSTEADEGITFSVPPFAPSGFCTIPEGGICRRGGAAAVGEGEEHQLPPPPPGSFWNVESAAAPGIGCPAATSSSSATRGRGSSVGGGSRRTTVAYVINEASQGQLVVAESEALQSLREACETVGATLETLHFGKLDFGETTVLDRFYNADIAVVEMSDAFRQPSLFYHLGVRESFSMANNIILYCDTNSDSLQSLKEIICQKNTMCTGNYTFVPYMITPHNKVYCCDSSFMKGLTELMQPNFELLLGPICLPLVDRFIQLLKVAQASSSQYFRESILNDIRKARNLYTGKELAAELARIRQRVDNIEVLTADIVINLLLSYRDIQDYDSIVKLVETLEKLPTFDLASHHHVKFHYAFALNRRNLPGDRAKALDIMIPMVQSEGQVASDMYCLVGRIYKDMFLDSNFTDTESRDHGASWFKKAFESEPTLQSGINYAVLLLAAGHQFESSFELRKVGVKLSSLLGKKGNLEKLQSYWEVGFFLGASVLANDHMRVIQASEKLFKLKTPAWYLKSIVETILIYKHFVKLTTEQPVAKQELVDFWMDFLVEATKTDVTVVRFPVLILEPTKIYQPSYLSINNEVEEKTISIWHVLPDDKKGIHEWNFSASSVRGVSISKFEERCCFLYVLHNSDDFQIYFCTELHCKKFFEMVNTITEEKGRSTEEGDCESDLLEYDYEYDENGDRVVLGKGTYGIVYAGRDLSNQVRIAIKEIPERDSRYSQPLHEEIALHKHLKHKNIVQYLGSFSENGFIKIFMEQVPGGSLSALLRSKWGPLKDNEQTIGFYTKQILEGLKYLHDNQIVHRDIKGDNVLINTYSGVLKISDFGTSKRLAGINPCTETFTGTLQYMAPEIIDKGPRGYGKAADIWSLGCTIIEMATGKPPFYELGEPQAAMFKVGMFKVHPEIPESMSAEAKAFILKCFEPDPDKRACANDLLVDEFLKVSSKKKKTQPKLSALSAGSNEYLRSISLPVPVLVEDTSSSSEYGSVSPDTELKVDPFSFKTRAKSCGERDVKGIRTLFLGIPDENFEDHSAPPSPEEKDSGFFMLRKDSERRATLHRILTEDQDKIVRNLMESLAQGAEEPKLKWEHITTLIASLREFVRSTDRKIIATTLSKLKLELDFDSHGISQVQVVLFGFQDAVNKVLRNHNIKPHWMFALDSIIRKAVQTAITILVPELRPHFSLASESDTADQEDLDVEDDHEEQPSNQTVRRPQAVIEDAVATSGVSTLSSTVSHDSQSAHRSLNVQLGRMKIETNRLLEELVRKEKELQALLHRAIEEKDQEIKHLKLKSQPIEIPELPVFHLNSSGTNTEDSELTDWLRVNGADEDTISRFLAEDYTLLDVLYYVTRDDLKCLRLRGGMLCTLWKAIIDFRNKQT
Sequence of STK16 (human) (O75716 whole entry, looked up): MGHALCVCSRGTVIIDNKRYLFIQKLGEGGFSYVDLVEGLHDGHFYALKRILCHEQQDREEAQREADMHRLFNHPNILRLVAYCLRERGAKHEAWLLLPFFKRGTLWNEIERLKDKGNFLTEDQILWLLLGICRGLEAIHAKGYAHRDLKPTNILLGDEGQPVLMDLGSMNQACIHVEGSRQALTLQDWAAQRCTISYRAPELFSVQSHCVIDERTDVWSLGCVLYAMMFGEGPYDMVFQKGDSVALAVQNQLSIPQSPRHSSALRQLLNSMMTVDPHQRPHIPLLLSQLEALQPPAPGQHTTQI
Sequence of AURKB (human) (Q96GD4 whole entry, looked up): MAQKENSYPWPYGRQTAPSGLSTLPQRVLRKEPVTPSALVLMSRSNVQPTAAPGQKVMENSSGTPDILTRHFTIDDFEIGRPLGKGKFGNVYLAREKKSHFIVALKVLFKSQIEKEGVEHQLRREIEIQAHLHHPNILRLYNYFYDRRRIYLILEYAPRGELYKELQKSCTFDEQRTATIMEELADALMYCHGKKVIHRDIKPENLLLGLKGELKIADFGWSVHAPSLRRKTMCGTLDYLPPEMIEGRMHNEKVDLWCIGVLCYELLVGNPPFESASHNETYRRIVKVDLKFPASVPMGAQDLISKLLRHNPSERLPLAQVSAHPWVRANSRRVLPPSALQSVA
Sequence of ACVR1 (human) (Q04771 whole entry, looked up): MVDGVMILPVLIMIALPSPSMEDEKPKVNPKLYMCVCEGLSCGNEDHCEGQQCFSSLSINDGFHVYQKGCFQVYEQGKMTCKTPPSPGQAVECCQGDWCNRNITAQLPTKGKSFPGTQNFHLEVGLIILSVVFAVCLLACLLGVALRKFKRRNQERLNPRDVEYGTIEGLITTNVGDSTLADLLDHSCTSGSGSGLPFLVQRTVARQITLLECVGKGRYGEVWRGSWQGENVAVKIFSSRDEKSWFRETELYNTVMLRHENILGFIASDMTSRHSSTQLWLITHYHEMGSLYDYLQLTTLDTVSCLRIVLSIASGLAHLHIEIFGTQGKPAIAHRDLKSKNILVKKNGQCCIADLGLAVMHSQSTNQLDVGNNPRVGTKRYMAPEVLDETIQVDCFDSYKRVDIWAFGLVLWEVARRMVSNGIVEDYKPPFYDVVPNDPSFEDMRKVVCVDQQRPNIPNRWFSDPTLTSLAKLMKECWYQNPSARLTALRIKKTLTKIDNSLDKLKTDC
Sequence of CSNK1G3 (human) (Q9Y6M4 whole entry, looked up): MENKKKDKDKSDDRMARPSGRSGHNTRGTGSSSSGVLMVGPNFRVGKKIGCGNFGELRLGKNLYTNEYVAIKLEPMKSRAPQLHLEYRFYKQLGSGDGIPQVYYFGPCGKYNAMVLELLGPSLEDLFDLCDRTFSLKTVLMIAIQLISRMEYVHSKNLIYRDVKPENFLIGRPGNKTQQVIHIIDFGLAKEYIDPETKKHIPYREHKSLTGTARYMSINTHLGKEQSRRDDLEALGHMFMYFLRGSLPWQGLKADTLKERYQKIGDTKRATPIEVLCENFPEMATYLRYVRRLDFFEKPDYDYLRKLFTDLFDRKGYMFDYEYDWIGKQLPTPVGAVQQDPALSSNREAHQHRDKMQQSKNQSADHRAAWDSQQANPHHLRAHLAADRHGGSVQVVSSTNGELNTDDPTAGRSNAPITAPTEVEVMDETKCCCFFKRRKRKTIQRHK

In the case of CN1C(=O)c2ccccc2N(C)c2nc(Nc3ccc(N4CCC(O)CC4)cc3)ncc21, the kinase still bound, per cent of control (ACVR1 (human)) is reported as 88%, the kinase still bound, per cent of control (AURKB (human)) is reported as 1.4% and the kinase still bound, per cent of control (BMPR1B (human)) is reported as 13%. For the same molecule, the kinase still bound, per cent of control (BRSK2 (human)) was 48%, the kinase still bound, per cent of control (CAMKK1 (human)) was 98% and the kinase still bound, per cent of control (CAMKK2 (human)) was 55%. The kinase still bound, per cent of control (CIT (human)) was 95%, the kinase still bound, per cent of control (CLK1 (human)) was 75% and the kinase still bound, per cent of control (CLK4 (human)) was 100%. It also gave a kinase still bound, per cent of control (CSNK1D (human)) of 77%, a kinase still bound, per cent of control (CSNK1G3 (human)) of 67% and a kinase still bound, per cent of control (CSNK2A2 (human)) of 58%. For the same molecule, the kinase still bound, per cent of control (DAPK1 (human)) was 98%, the kinase still bound, per cent of control (DYRK1B (human)) was 100% and the kinase still bound, per cent of control [1] was 100%. It also gave a kinase still bound, per cent of control [2] of 98%, a kinase still bound, per cent of control (FLT3 (human)) of 100% and a kinase still bound, per cent of control [3] of 52%. The kinase still bound, per cent of control [4] was 85%, the kinase still bound, per cent of control (GAK (human)) was 37% and the kinase still bound, per cent of control (GSK3A (human)) was 100%. The kinase still bound, per cent of control (KIT (human)) was 66%, the kinase still bound, per cent of control (MAP3K5 (human)) was 100% and the kinase still bound, per cent of control (MAP3K7 (human)) was 58%. The kinase still bound, per cent of control (MAP4K4 (human)) was 85%, the kinase still bound, per cent of control (MELK (human)) was 100% and the kinase still bound, per cent of control (MKNK2 (human)) was 8.4%. For the same molecule, the kinase still bound, per cent of control (MYLK3 (human)) was 100%, the kinase still bound, per cent of control (PIK3CG (human)) was 4.2% and the kinase still bound, per cent of control (PIM2 (human)) was 100%. The kinase still bound, per cent of control (PLK4 (human)) was 1.8%, the kinase still bound, per cent of control (PRKD3 (human)) was 69% and the kinase still bound, per cent of control (RIOK2 (human)) was 63%. It also gave a kinase still bound, per cent of control (RIOK3 (human)) of 82%, a kinase still bound, per cent of control (RIPK4 (human)) of 61% and a kinase still bound, per cent of control (RPS6KA1 KD2 (human)) of 45%. It also gave a kinase still bound, per cent of control (RPS6KA5 KD2 (human)) of 100%, a kinase still bound, per cent of control (SRPK3 (human)) of 84% and a kinase still bound, per cent of control (STK16 (human)) of 59%. It also gave a kinase still bound, per cent of control (STK17B (human)) of 79%, a kinase still bound, per cent of control (STK24 (human)) of 82% and a kinase still bound, per cent of control (TNIK (human)) of 83%.

COc1cc(N2CCN(C)CC2)ccc1Nc1ncc2c(n1)N(C)c1sccc1C(=O)N2C gave a kinase still bound, per cent of control (ACVR1 (human)) of 94%, a kinase still bound, per cent of control (AURKB (human)) of 56% and a kinase still bound, per cent of control (BMPR1B (human)) of 91%. It also gave a kinase still bound, per cent of control (BRSK2 (human)) of 100%, a kinase still bound, per cent of control (CAMKK1 (human)) of 57% and a kinase still bound, per cent of control (CAMKK2 (human)) of 34%. The kinase still bound, per cent of control (CIT (human)) was 85%, the kinase still bound, per cent of control (CLK1 (human)) was 56% and the kinase still bound, per cent of control (CLK4 (human)) was 66%. The kinase still bound, per cent of control (CSNK1D (human)) was 81%, the kinase still bound, per cent of control (CSNK1G3 (human)) was 82% and the kinase still bound, per cent of control (CSNK2A2 (human)) was 52%. For the same molecule, the kinase still bound, per cent of control (DAPK1 (human)) was 58%, the kinase still bound, per cent of control (DYRK1B (human)) was 63% and the kinase still bound, per cent of control [1] was 72%. It also gave a kinase still bound, per cent of control [2] of 82%, a kinase still bound, per cent of control (FLT3 (human)) of 99% and a kinase still bound, per cent of control [3] of 99%. For the same molecule, the kinase still bound, per cent of control [4] was 93%, the kinase still bound, per cent of control (GAK (human)) was 24% and the kinase still bound, per cent of control (GSK3A (human)) was 100%. The kinase still bound, per cent of control (KIT (human)) was 66%, the kinase still bound, per cent of control (MAP3K5 (human)) was 74% and the kinase still bound, per cent of control (MAP3K7 (human)) was 81%. The kinase still bound, per cent of control (MAP4K4 (human)) was 99%, the kinase still bound, per cent of control (MELK (human)) was 70% and the kinase still bound, per cent of control (MKNK2 (human)) was 24%. It also gave a kinase still bound, per cent of control (MYLK3 (human)) of 86%, a kinase still bound, per cent of control (PIK3CG (human)) of 73% and a kinase still bound, per cent of control (PIM2 (human)) of 86%. It also gave a kinase still bound, per cent of control (PLK4 (human)) of 9.9%, a kinase still bound, per cent of control (PRKD3 (human)) of 5.8% and a kinase still bound, per cent of control (RIOK2 (human)) of 100%. The kinase still bound, per cent of control (RIOK3 (human)) was 52%, the kinase still bound, per cent of control (RIPK4 (human)) was 95% and the kinase still bound, per cent of control (RPS6KA1 KD2 (human)) was 24%. The kinase still bound, per cent of control (RPS6KA5 KD2 (human)) was 57%, the kinase still bound, per cent of control (SRPK3 (human)) was 67% and the kinase still bound, per cent of control (STK16 (human)) was 81%. For the same molecule, the kinase still bound, per cent of control (STK17B (human)) was 100%, the kinase still bound, per cent of control (STK24 (human)) was 72% and the kinase still bound, per cent of control (TNIK (human)) was 55%.

Work on COc1cc(N2CCC(O)CC2)ccc1Nc1ncc2c(n1)N1CCc3cccc(c31)C(=O)N2C yielded a kinase still bound, per cent of control (ACVR1 (human)) of 95%, a kinase still bound, per cent of control (AURKB (human)) of 100% and a kinase still bound, per cent of control (BMPR1B (human)) of 88%. For the same molecule, the kinase still bound, per cent of control (BRSK2 (human)) was 85%, the kinase still bound, per cent of control (CAMKK1 (human)) was 77% and the kinase still bound, per cent of control (CAMKK2 (human)) was 60%. For the same molecule, the kinase still bound, per cent of control (CIT (human)) was 10%, the kinase still bound, per cent of control (CLK1 (human)) was 73% and the kinase still bound, per cent of control (CLK4 (human)) was 70%. For the same molecule, the kinase still bound, per cent of control (CSNK1D (human)) was 60%, the kinase still bound, per cent of control (CSNK1G3 (human)) was 90% and the kinase still bound, per cent of control (CSNK2A2 (human)) was 67%. For the same molecule, the kinase still bound, per cent of control (DAPK1 (human)) was 44%, the kinase still bound, per cent of control (DYRK1B (human)) was 54% and the kinase still bound, per cent of control [1] was 76%. It also gave a kinase still bound, per cent of control [2] of 100%, a kinase still bound, per cent of control (FLT3 (human)) of 95% and a kinase still bound, per cent of control [3] of 100%. The kinase still bound, per cent of control [4] was 96%, the kinase still bound, per cent of control (GAK (human)) was 12% and the kinase still bound, per cent of control (GSK3A (human)) was 100%. For the same molecule, the kinase still bound, per cent of control (KIT (human)) was 91%, the kinase still bound, per cent of control (MAP3K5 (human)) was 100% and the kinase still bound, per cent of control (MAP3K7 (human)) was 98%. The kinase still bound, per cent of control (MAP4K4 (human)) was 57%, the kinase still bound, per cent of control (MELK (human)) was 78% and the kinase still bound, per cent of control (MKNK2 (human)) was 32%. It also gave a kinase still bound, per cent of control (MYLK3 (human)) of 100%, a kinase still bound, per cent of control (PIK3CG (human)) of 28% and a kinase still bound, per cent of control (PIM2 (human)) of 100%. For the same molecule, the kinase still bound, per cent of control (PLK4 (human)) was 5.4%, the kinase still bound, per cent of control (PRKD3 (human)) was 22% and the kinase still bound, per cent of control (RIOK2 (human)) was 100%. The kinase still bound, per cent of control (RIOK3 (human)) was 92%, the kinase still bound, per cent of control (RIPK4 (human)) was 79% and the kinase still bound, per cent of control (RPS6KA1 KD2 (human)) was 8%. It also gave a kinase still bound, per cent of control (RPS6KA5 KD2 (human)) of 62%, a kinase still bound, per cent of control (SRPK3 (human)) of 89% and a kinase still bound, per cent of control (STK16 (human)) of 48%. It also gave a kinase still bound, per cent of control (STK17B (human)) of 100%, a kinase still bound, per cent of control (STK24 (human)) of 84% and a kinase still bound, per cent of control (TNIK (human)) of 48%.

For N=C1NC(=O)/C(=C/c2ccc(-c3ccc(F)cc3O)o2)S1, the kinase still bound, per cent of control (BMPR1B (human)) was 12%, the kinase still bound, per cent of control (BRSK2 (human)) was 23% and the kinase still bound, per cent of control (CAMKK1 (human)) was 14%. For the same molecule, the kinase still bound, per cent of control (CAMKK2 (human)) was 22%, the kinase still bound, per cent of control (CIT (human)) was 33% and the kinase still bound, per cent of control (CLK1 (human)) was 1.3%. It also gave a kinase still bound, per cent of control (CLK4 (human)) of 2.1%, a kinase still bound, per cent of control (CSNK1D (human)) of 24% and a kinase still bound, per cent of control (CSNK2A2 (human)) of 15%. It also gave a kinase still bound, per cent of control (DAPK1 (human)) of 8.3%, a kinase still bound, per cent of control (DYRK1B (human)) of 3.6% and a kinase still bound, per cent of control (GAK (human)) of 7.6%. It also gave a kinase still bound, per cent of control (MAP3K5 (human)) of 14%, a kinase still bound, per cent of control (MYLK3 (human)) of 16% and a kinase still bound, per cent of control (PIK3CG (human)) of 0%. The kinase still bound, per cent of control (PIM2 (human)) was 1.4%, the kinase still bound, per cent of control (PLK4 (human)) was 4.6% and the kinase still bound, per cent of control (RIPK4 (human)) was 4.2%. For the same molecule, the kinase still bound, per cent of control (RPS6KA5 KD2 (human)) was 24% and the kinase still bound, per cent of control (STK17B (human)) was 2.9%.
